Test results from US20200002354A1, “HEXAHYDROPYRAZINOBENZ- OR -PYRIDO-OXAZEPINES CARRYING AN OXYGEN-CONTAINING SUBSTITUENT AND USE THEREOF IN THE TREATMENT OF 5-HT2C-DEPENDENT DISORDERS” (AbbVie Deutschland GmbH & Co. KG, priority 2015, published 2020).

Experiments:
5-HT2C receptor = target: T1, 5-HT2C receptor (Homo sapiens, UniProt P28335); assay: Human 5-HT2C functional assay (beta-arrestin2 recruitment, U2OS_HTR2C_β-Arrestin cells); assay type: cell-based; conditions: for EC50: Potency (EC50 5-HT2C) in functional assay, agonism, read-out: EC50 5-HT2C; for Emax: relative efficacy vs maximal effect induced by 5-HT (defined as 100%)
T1 construct: host or cells: U2OS
T1 sequence (P28335 33-458): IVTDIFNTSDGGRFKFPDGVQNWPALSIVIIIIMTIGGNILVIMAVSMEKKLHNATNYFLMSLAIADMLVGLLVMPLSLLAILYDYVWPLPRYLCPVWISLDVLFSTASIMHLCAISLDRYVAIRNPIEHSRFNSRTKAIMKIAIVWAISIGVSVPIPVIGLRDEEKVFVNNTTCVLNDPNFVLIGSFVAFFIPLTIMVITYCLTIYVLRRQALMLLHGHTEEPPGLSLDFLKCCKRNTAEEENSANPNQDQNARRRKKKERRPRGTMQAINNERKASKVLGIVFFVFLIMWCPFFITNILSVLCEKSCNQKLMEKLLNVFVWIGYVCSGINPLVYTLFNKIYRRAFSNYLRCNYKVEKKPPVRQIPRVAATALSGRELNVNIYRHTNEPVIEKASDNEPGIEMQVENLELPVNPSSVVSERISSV
T1 sequence (P32121 whole entry partner): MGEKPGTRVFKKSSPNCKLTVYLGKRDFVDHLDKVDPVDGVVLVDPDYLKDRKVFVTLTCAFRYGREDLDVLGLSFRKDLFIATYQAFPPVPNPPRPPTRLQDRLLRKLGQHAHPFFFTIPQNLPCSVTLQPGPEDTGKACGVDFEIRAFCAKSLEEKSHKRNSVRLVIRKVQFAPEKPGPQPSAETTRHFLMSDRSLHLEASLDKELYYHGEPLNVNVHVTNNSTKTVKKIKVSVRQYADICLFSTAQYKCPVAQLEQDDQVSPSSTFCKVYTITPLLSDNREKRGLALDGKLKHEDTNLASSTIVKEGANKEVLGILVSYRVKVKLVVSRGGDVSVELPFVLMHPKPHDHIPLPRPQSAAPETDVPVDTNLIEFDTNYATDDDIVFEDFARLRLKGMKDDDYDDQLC
Method: 1. Human 5-HT2C Functional Assay
The functional activity of compounds of formula I was assayed by incubation with U2OS_HTR2C_β-Arrestin cells (DiscoverX, 93-0289C3) to induce beta-arrestin2 recruitment to the 5-HT2C receptor. The agonist-induced recruitment and proximity of the receptor and beta-arrestin2 leads to complementation and formation of active β-galactosidase. The enzyme complementation results in enzyme activity, which is measured following the termination of the agonist incubation using DiscoveRx's detection reagent, which contains a chemiluminescent substrate which produces a high intensity signal. Cells were plated and a medium-change to a 1% serum containing medium was performed 24 h later. The next day, test compounds were added and incubated for 1.5 h before addition of detection reagent.
The response produced was measured and compared with the response produced by 10 [mu]M 5-HT or the maximal effect induced by 5-HT (defined as 100%) to which it was expressed as a percentage response (relative efficacy).

[1] = Metabolic stability in human liver microsomes, unbound intrinsic clearance; assay type: in vitro ADME; conditions: liver microsomes, pH 7.4; unbound intrinsic clearance (human); Clint unbound = Cl int/fu mic; read-out: Cl int, mic unb. (h)
Method: Samples of the tested compounds (0.5 μM) were preincubated together with human liver microsomes (0.25 mg of microsomal protein/mL) in 0.05 M potassium phosphate buffer of pH 7.4 in microtiter plates at 37° C. for 5 minutes. The reaction was started by adding NADPH (1.0 mM). After 0, 5, 10, 15, 20 and 30 minutes, an aliquot was removed, the reaction was cooled and stopped by adding twice the amount of quench solution consisting of acetonitrile/methanol 1:1, and containing 0.2 μM carbutamide as internal standard. The samples were frozen until analyzed. The remaining concentration of undegraded test substance was determined by liquid chromatography-tandem mass spectrometry (LC-MS/MS). The half-life (t1/2) was determined from the gradient of the ratio of the signal of (test substance/internal standard)/unit time plot, allowing the calculation of the half-life of the test substance, assuming first order kinetics, from the decrease in the concentration of the compound with time. The microsomal clearance (mClint) was calculated as follows: mClint=((ln(2)/t ½)/Microsomal Protein Concentration (mg/ml))*1000, leading to the unit of uL/min/mg. The scaled clearance (mClin_scaled) was calculated as mCLint_scaled=m CLint*(Microsomal Yield (mg/kg BW))/1000000*60, leading to the units L/h/kg. The Microsomal Yield is defined by the specifics of the used microsomes. Calculations were modified from references: Di, The Society for Biomolecular Screening, 2003, 453-462; Obach, D M D, 1999 vol 27. N 11, 1350-1359.
Calculation of Unbound Intrinsic Clearance
C1int unbound=C1 int/fu mic

human 5-HT2B receptor = target: T2, human 5-HT2B receptor (Homo sapiens, UniProt P41595); assay: Human 5-HT2B functional assay (calcium mobilisation in CHO-FlpIn cells, FLIPR); assay type: cell-based; conditions: based on agonism: EC50 5-HT2B/EC50 5-HT2C
T2 construct: expressed in transfected cells; host or cells: CHO-FlpIn
T2 sequence (P41595 whole entry): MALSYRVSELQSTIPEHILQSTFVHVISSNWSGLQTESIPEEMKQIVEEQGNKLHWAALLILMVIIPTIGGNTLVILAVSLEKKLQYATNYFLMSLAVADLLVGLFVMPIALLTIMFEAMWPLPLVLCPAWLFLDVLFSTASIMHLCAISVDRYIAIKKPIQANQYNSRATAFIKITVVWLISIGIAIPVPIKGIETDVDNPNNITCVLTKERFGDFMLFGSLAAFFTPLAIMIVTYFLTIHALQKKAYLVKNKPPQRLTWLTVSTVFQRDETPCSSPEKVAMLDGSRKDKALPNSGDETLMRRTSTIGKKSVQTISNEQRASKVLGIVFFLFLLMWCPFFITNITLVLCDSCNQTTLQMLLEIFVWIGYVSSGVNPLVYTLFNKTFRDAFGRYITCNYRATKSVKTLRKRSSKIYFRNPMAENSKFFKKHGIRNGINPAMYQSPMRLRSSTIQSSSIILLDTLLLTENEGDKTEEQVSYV
Method: 3. Human 5-HT2B Functional Assay
Functional activity on the 5-HT2B receptor was determined by testing the effect of the compounds I on calcium mobilisation in CHO-FlpIn cells, stably transfected with human 5-HT2B receptor. Cells were seeded into sterile black 384-well plates with clear bottom at 30,000 cells/well in a volume of 25 μl and grown overnight at 37° C., in 5% CO2 in tissue culture medium (“CHO-S-SFM II” by Invitrogen), containing 1% dialysed FCS and 50 μg/ml gentamicin (Invitrogen). On the next morning, medium was replaced by a serum free version of the same tissue culture medium for a further incubation for 4 hours at 37° C. and in 5% CO2. Cells were then loaded with a fluorescent calcium-sensitive dye in the presence of 0.07% probenecid for an hour at 37° C., according to the manufacturer's protocol (Ca5-Assay Kit, Molecular Devices), followed by an additional 60 min incubation at room temperature. Serial compound dilutions (final concentrations of 10^−10 to 10^−5M, prepared in HBSS+50 mM HEPES) were first added to the cells alone (“first addition” to assess agonism on the 5-HT2B receptor), then after 8 min, serotonin was added to the same wells at a final concentration of 10^−8 M (“second addition” to see potential antagonistic effect) and the maximal calcium response was determined using a FLIPR® Tetra instrument (Molecular Devices) in each of the two steps. The relative efficacy of the compounds was calculated as a percentage of the maximal effect induced by serotonin alone (defined as 100%). To determine EC50/IC50 values, concentration-response curves were fitted using a four-parameter logistic equation (IDBS Biobookml). Kb values were calculated from IC50 values, according to Cheng & Prusoff

human 5-HT2A receptor = target: T3, human 5-HT2A receptor (Homo sapiens, UniProt P28223); assay: Human 5-HT2A functional assay (calcium mobilisation in CHO-K1 cells, FLIPR); assay type: cell-based; conditions: based on agonism: EC50 5-HT2A/EC50 5-HT2C
T3 construct: expressed in transfected cells; host or cells: CHO-K1
T3 sequence (P28223 whole entry): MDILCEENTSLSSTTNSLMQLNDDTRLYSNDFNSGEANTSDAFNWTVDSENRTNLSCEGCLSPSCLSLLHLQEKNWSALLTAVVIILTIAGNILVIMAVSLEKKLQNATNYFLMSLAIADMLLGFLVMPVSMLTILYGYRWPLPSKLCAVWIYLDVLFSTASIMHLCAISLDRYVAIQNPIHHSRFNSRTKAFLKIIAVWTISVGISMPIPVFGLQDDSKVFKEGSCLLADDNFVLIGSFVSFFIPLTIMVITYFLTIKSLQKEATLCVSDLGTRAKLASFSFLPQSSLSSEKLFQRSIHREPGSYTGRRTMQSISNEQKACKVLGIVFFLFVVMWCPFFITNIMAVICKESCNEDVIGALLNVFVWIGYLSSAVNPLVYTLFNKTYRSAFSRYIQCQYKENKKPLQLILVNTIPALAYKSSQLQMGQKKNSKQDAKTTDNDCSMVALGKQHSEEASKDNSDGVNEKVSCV
Method: 2. Human 5-HT2A Functional Assay
Functional activity on the 5-HT2A receptor was determined by testing the effect of the compounds I on calcium mobilisation in CHO-K1 cells, stably transfected with human 5-HT2A receptor. Cells were seeded into sterile black 384-well plates with clear bottom at 25,000 cells/well in a volume of 25 μl and grown for 5-6 hours at 37° C., in 5% CO2 in tissue culture medium (“Ultra CHO” by LONZA), containing 1% dialysed FCS and 50 μg/ml gentamicin (Invitrogen). After this incubation, medium was replaced by a serum free version of the same tissue culture medium followed by incubation overnight at 37° C. and in 5% CO2. Cells were then loaded with a fluorescent calcium-sensitive dye in the presence of 0.07% probenecid for an hour at 37° C., according to the manufacturer's protocol (Ca5-Assay Kit, Molecular Devices), followed by an additional 60 min incubation at room temperature. Serial compound dilutions (final concentrations of 10^−10 to 10^−5M, prepared in HBSS+50 mM HEPES) were first added to the cells alone (“first addition” to assess agonism on the 5-HT2A receptor), then after 8 min, serotonin was added to the same wells at a final concentration of 3×10^−8 M (“second addition” to see potential antagonistic effect) and the maximal calcium response was determined using a FLIPR® Tetra instrument (Molecular Devices) in each of the two steps. The relative efficacy of the compounds was calculated as a percentage of the maximal effect induced by serotonin alone (defined as 100%). To determine EC50/IC50 values, concentration-response curves were fitted using a four-parameter logistic equation (IDBS Biobookml). Kb values were calculated from IC50 values, according to Cheng & Prusoff

SMILES	EC50 (5-HT2C receptor) [nM]	Emax (5-HT2C receptor) [%]	CLint scaled at 0.5 μM [1] [mL/min/kg]	Selectivity over 5-HT2B (human 5-HT2B receptor)	Selectivity over 5-HT2A (human 5-HT2A receptor)
COC[C@@H]1C[C@@H]2CNCCN2c2c(F)c(F)cc(Cl)c2O1.Cl [Example 16, (4aR,6S)-8-Chloro-10,11-difluoro-6-(methoxymethyl)-2,3,4,4a,5,6-hexahydro-1H-pyrazino[2,1-d][1,5]benzoxazepine hydrochloride]	< 20	> 70	< 83.3	+++ (>100)	+++ (>100)
COC[C@@H]1C[C@@H]2CNCCN2c2c(F)c(F)cc(F)c2O1.O=C(O)/C=C/C(=O)O [Example 18, (4aR,6S)-8,10,11-Trifluoro-6-(methoxymethyl)-2,3,4,4a,5,6-hexahydro-1H-pyrazino[2,1-d][1,5]benzoxazepine; fumaric acid]	20 to 200	> 70	< 83.3	+++ (>100)	+++ (>100)
Cl.[2H]C([2H])([2H])OC[C@@H]1C[C@@H]2CNCCN2c2cc(F)cc(Cl)c2O1 [Example 19, (4aR,6S)-8-Chloro-10-fluoro-6-(trideuteriomethoxymethyl)-2,3,4,4a,5,6-hexahydro-1H-pyrazino[2,1-d][1,5]benzoxazepine hydrochloride]	< 20	> 70	< 83.3	++ (from >30 to 100)	+++ (>100)
COC[C@@H]1C[C@@H]2CNCCN2c2c(ccc(F)c2F)O1.Cl [Example 21, (4aR,6S)-10,11-Difluoro-6-(methoxymethyl)-2,3,4,4a,5,6-hexahydro-1H-pyrazino[2,1-d][1,5]benzoxazepine hydrochloride]	20 to 200	30 to 50	< 83.3	++ (from >30 to 100)	++ (from >30 to 100)
COC[C@@H]1C[C@@H]2CNCCN2c2cc(F)cc(C(F)(F)F)c2O1.Cl [Example 22, (4aR,6S)-10-Fluoro-6-(methoxymethyl)-8-(trifluoromethyl)-2,3,4,4a,5,6-hexahydro-1H-pyrazino[2,1-d][1,5]benzoxazepine hydrochloride]	< 20	> 70	< 83.3	++ (from >30 to 100)	+++ (>100)
Cl.Fc1cc(Cl)c2c(c1)N1CCNC[C@H]1C[C@@H](COC(F)F)O2 [Example 24, (4aR,6S)-8-Chloro-6-(difluoromethoxymethyl)-10-fluoro-2,3,4,4a,5,6-hexahydro-1H-pyrazino[2,1-d][1,5]benzoxazepine hydrochloride]	20 to 200	50 to 70	83.3 to 833	++ (from >30 to 100)	+++ (>100)
COC[C@@H]1C[C@@H]2CNCCN2c2c(F)c(F)cc(C(F)F)c2O1.Cl [Example 26, (4aR,6S)-8-(Difluoromethyl)-10,11-difluoro-6-(methoxymethyl)-2,3,4,4a,5,6-hexahydro-1H-pyrazino[2,1-d][1,5]benzoxazepine hydrochloride]	< 20	> 70	< 83.3	+++ (>100)	+++ (>100)
COC[C@@H]1C[C@@H]2CNCCN2c2c(F)c(F)cc(C#N)c2O1.Cl [Example 28, (4aR,6S)-10,11-Difluoro-6-(methoxymethyl)-2,3,4,4a,5,6-hexahydro-1H-pyrazino[2,1-d][1,5]benzoxazepine-8-carbonitrile hydrochloride]	20 to 200	> 70	< 83.3	+ (from 10 to 30)	++ (from >30 to 100)
COC[C@@H]1C[C@@H]2CNCCN2c2c(F)c(OC)cc(C(F)F)c2O1.Cl [Example 29, (4aR,6S)-8-(Difluoromethyl)-11-fluoro-10-methoxy-6-(methoxymethyl)-2,3,4,4a,5,6-hexahydro-1H-pyrazino[2,1-d][1,5]benzoxazepine hydrochloride]	20 to 200	> 70	83.3 to 833	+++ (>100)	+++ (>100)
COC[C@@H]1C[C@@H]2CNCCN2c2ccc(C)c(F)c2O1 [Example 30, (4aR,6S)-8-Fluoro-6-(methoxymethyl)-9-methyl-2,3,4,4a,5,6-hexahydro-1H-pyrazino[2,1-d][1,5]benzoxazepine]	20 to 200	50 to 70	< 83.3	++ (from >30 to 100)	++ (from >30 to 100)
COC[C@@H]1C[C@@H]2CNCCN2c2cc(Cl)c(F)cc2O1.Cl [Example 31, (4aR,6S)-10-Chloro-9-fluoro-6-(methoxymethyl)-2,3,4,4a,5,6-hexahydro-1H-pyrazino[2,1-d][1,5]benzoxazepine hydrochloride]	20 to 200	30 to 50	< 83.3	++ (from >30 to 100)	++ (from >30 to 100)
COC[C@H]1C[C@@H]2CNCCN2c2cc(F)cc(C(F)F)c2O1.Cl [Example 32, (4aR,6R)-8-(Difluoromethyl)-10-fluoro-6-(methoxymethyl)-2,3,4,4a,5,6-hexahydro-1H-pyrazino[2,1-d][1,5]benzoxazepine hydrochloride]	200 to 1000	> 70	< 83.3	++ (from >30 to 100)	++ (from >30 to 100)
